Assay results published in PubChem BioAssay (NCI).
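Method: 48-hour compound exposure of cells in 96-well plates, five concentrations, linear interpolation of endpoints. GI50 marks 50% less growth. TGI marks complete inhibition of growth.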

Tests used:
Experiment in all cases: NCI anticancer screen, dose series, 48 h
MCF7 breast = tested on: MCF7 breast
UACC-257 melanoma = tested on: UACC-257 melanoma
HL-60(TB) leukemia = tested on: HL-60(TB) leukemia
OVCAR-4 ovarian = tested on: OVCAR-4 ovarian
CCRF-CEM leukemia = tested on: CCRF-CEM leukemia
MALME-3M melanoma = tested on: MALME-3M melanoma
RXF 393 renal = tested on: RXF 393 renal
SK-MEL-5 melanoma = tested on: SK-MEL-5 melanoma
EKVX NSCLC = tested on: EKVX NSCLC
HT29 colon = tested on: HT29 colon
OVCAR-8 ovarian = tested on: OVCAR-8 ovarian
K-562 leukemia = tested on: K-562 leukemia
IGROV1 ovarian = tested on: IGROV1 ovarian
TK-10 renal = tested on: TK-10 renal
MOLT-4 leukemia = tested on: MOLT-4 leukemia
A549 NSCLC = tested on: A549 NSCLC
SK-MEL-2 melanoma = tested on: SK-MEL-2 melanoma
NCI-H226 lung = tested on: NCI-H226 lung
UACC-62 melanoma = tested on: UACC-62 melanoma
NCI-H23 lung = tested on: NCI-H23 lung
SR leukemia = tested on: SR leukemia
SNB-75 CNS = tested on: SNB-75 CNS
HCT-116 colon = tested on: HCT-116 colon
M14 melanoma = tested on: M14 melanoma
HCT-15 colon = tested on: HCT-15 colon
U251 CNS = tested on: U251 CNS
MDA-MB-435 = tested on: MDA-MB-435
SNB-19 CNS = tested on: SNB-19 CNS
T-47D breast = tested on: T-47D breast
NCI-H460 lung = tested on: NCI-H460 lung
SF-539 CNS = tested on: SF-539 CNS
NCI-H522 lung = tested on: NCI-H522 lung
HS 578T breast = tested on: HS 578T breast
A498 renal = tested on: A498 renal
NCI/ADR-RES ovarian = tested on: NCI/ADR-RES ovarian
COLO 205 colon = tested on: COLO 205 colon
UO-31 renal = tested on: UO-31 renal
LOX IMVI melanoma = tested on: LOX IMVI melanoma
MDA-MB-231 breast = tested on: MDA-MB-231 breast
HOP-62 NSCLC = tested on: HOP-62 NSCLC
DU-145 prostate = tested on: DU-145 prostate
SK-OV-3 ovarian = tested on: SK-OV-3 ovarian
PC-3 prostate = tested on: PC-3 prostate
SN12C renal = tested on: SN12C renal
BT-549 breast = tested on: BT-549 breast
HCC-2998 colon = tested on: HCC-2998 colon
SK-MEL-28 melanoma = tested on: SK-MEL-28 melanoma
KM12 colon = tested on: KM12 colon
SF-295 CNS = tested on: SF-295 CNS
786-0 renal = tested on: 786-0 renal
RPMI-8226 leukemia = tested on: RPMI-8226 leukemia
OVCAR-5 ovarian = tested on: OVCAR-5 ovarian
OVCAR-3 ovarian = tested on: OVCAR-3 ovarian
SF-268 CNS = tested on: SF-268 CNS
HOP-92 NSCLC = tested on: HOP-92 NSCLC
SW-620 colon = tested on: SW-620 colon

Work on `CN(C)CCCOc1ccc(OCCCN(C)C)c2c1C(=O)c1ccccc1C2=O` yielded a GI50 (MCF7 breast) of 388 nM, a TGI (MCF7 breast) of 10600 nM and a GI50 (UACC-257 melanoma) of 2380 nM. It also gave a TGI (UACC-257 melanoma) of 5420 nM, a GI50 (HL-60(TB) leukemia) of 2140 nM and a TGI (HL-60(TB) leukemia) of 6770 nM. For the same molecule, the GI50 (OVCAR-4 ovarian) was 1400 nM, the TGI (OVCAR-4 ovarian) was 5180 nM and the GI50 (CCRF-CEM leukemia) was 930 nM. The TGI (CCRF-CEM leukemia) was 6950 nM, the GI50 (MALME-3M melanoma) was 1110 nM and the TGI (MALME-3M melanoma) was 2730 nM. It also gave a GI50 (RXF 393 renal) of 1320 nM, a TGI (RXF 393 renal) of 3690 nM and a GI50 (SK-MEL-5 melanoma) of 1860 nM. It also gave a TGI (SK-MEL-5 melanoma) of 3560 nM, a GI50 (EKVX NSCLC) of 2300 nM and a TGI (EKVX NSCLC) of 11000 nM. For the same molecule, the GI50 (HT29 colon) was 382 nM, the TGI (HT29 colon) was 3580 nM and the GI50 (OVCAR-8 ovarian) was 1140 nM. For the same molecule, the TGI (OVCAR-8 ovarian) was 12000 nM, the GI50 (K-562 leukemia) was 706 nM and the TGI (K-562 leukemia) was 6420 nM. It also gave a GI50 (IGROV1 ovarian) of 1780 nM, a TGI (IGROV1 ovarian) of 14200 nM and a GI50 (TK-10 renal) of 1710 nM. For the same molecule, the TGI (TK-10 renal) was 12500 nM, the GI50 (MOLT-4 leukemia) was 378 nM and the TGI (MOLT-4 leukemia) was 5990 nM. The GI50 (A549 NSCLC) was 388 nM, the TGI (A549 NSCLC) was 11900 nM and the GI50 (SK-MEL-2 melanoma) was 1260 nM. The TGI (SK-MEL-2 melanoma) was 3340 nM, the GI50 (NCI-H226 lung) was 1020 nM and the TGI (NCI-H226 lung) was 5540 nM. For the same molecule, the GI50 (UACC-62 melanoma) was 1890 nM, the TGI (UACC-62 melanoma) was 4240 nM and the GI50 (NCI-H23 lung) was 1020 nM. For the same molecule, the TGI (NCI-H23 lung) was 4270 nM, the GI50 (SR leukemia) was 524 nM and the TGI (SR leukemia) was 5050 nM. It also gave a GI50 (SNB-75 CNS) of 1510 nM, a TGI (SNB-75 CNS) of 3720 nM and a GI50 (HCT-116 colon) of 379 nM. For the same molecule, the TGI (HCT-116 colon) was 10300 nM, the GI50 (M14 melanoma) was 1600 nM and the TGI (M14 melanoma) was 3490 nM. The GI50 (HCT-15 colon) was 5450 nM, the TGI (HCT-15 colon) was 61500 nM and the GI50 (U251 CNS) was 682 nM. It also gave a TGI (U251 CNS) of 9020 nM, a GI50 (MDA-MB-435) of 1590 nM and a TGI (MDA-MB-435) of 3190 nM. The GI50 (SNB-19 CNS) was 941 nM, the TGI (SNB-19 CNS) was 10000 nM and the GI50 (T-47D breast) was 1360 nM. It also gave a TGI (T-47D breast) of 8300 nM, a GI50 (NCI-H460 lung) of 514 nM and a TGI (NCI-H460 lung) of 11600 nM. It also gave a GI50 (SF-539 CNS) of 1570 nM, a TGI (SF-539 CNS) of 4110 nM and a GI50 (NCI-H522 lung) of 381 nM. For the same molecule, the TGI (NCI-H522 lung) was 2210 nM, the GI50 (HS 578T breast) was 2050 nM and the TGI (HS 578T breast) was 10500 nM. For the same molecule, the GI50 (A498 renal) was 1380 nM, the TGI (A498 renal) was 3320 nM and the GI50 (NCI/ADR-RES ovarian) was 33600 nM. The TGI (NCI/ADR-RES ovarian) was > 100000 nM, the GI50 (COLO 205 colon) was 379 nM and the TGI (COLO 205 colon) was 1820 nM. For the same molecule, the GI50 (UO-31 renal) was 2640 nM, the TGI (UO-31 renal) was 18300 nM and the GI50 (LOX IMVI melanoma) was 810 nM. It also gave a TGI (LOX IMVI melanoma) of 10200 nM, a GI50 (MDA-MB-231 breast) of 908 nM and a TGI (MDA-MB-231 breast) of 4630 nM. It also gave a GI50 (HOP-62 NSCLC) of 634 nM, a TGI (HOP-62 NSCLC) of 3540 nM and a GI50 (DU-145 prostate) of 1140 nM. It also gave a TGI (DU-145 prostate) of 11800 nM, a GI50 (SK-OV-3 ovarian) of 988 nM and a TGI (SK-OV-3 ovarian) of 4740 nM. For the same molecule, the GI50 (PC-3 prostate) was 1480 nM, the TGI (PC-3 prostate) was 5150 nM and the GI50 (SN12C renal) was 517 nM. The TGI (SN12C renal) was 11900 nM, the GI50 (BT-549 breast) was 1950 nM and the TGI (BT-549 breast) was 4970 nM. It also gave a GI50 (HCC-2998 colon) of 1260 nM, a TGI (HCC-2998 colon) of 6520 nM and a GI50 (SK-MEL-28 melanoma) of 2010 nM. The TGI (SK-MEL-28 melanoma) was 4450 nM, the GI50 (KM12 colon) was 961 nM and the TGI (KM12 colon) was 10600 nM. It also gave a GI50 (SF-295 CNS) of 1710 nM, a TGI (SF-295 CNS) of 10600 nM and a GI50 (786-0 renal) of 1770 nM. It also gave a TGI (786-0 renal) of 10300 nM, a GI50 (RPMI-8226 leukemia) of 2050 nM and a TGI (RPMI-8226 leukemia) of 6550 nM. It also gave a GI50 (OVCAR-5 ovarian) of 962 nM, a TGI (OVCAR-5 ovarian) of 5290 nM and a GI50 (OVCAR-3 ovarian) of 1930 nM. For the same molecule, the TGI (OVCAR-3 ovarian) was 8260 nM, the GI50 (SF-268 CNS) was 1320 nM and the TGI (SF-268 CNS) was 7280 nM. For the same molecule, the GI50 (HOP-92 NSCLC) was 572 nM, the TGI (HOP-92 NSCLC) was 4130 nM and the GI50 (SW-620 colon) was 532 nM. It also gave a TGI (SW-620 colon) of 11000 nM.
